The record followed here is patent publication US20100098691A1, “COMBINATION OF BENZIMIDAZOLE ANTI-CANCER AGENT AND A SECOND ANTI-CANCER AGENT” (S'BIO PTE LTD, priority 2001, published 2010).

SMILES strings stand for the structures.

One experiment relates to HCT 116 (colon). Nature of the experiment: Human xenograft model, tumor growth inhibition. Type of experiment: in vivo, female athymic nude mice. To be noted: vehicle (Tw/MC) po qd × 14 + 5FU 50 mg/kg iv D1, 8, 15. A general note: In xenograft studies the graft and the host belong to different species.
The next experiment deals with H460 (lung). Description: Human xenograft model, tumor growth inhibition. It counts as in vivo, female athymic nude mice. The protocol:
To assess in vivo antitumor activity in human xenograft models, female athymic nude mice, 12 to 14 weeks of age, were implanted subcutaneously in the flank with human cancer cells. When the tumors reached approximately 100 mm^3 in size, the mice were pair-matched into various treatment groups. For oral administration, compounds were dissolved in a mixture of 0.5% methylcellulose and 0.1% Tween 80 and administered by gavage to the tumor-bearing mice. For i.v.andi.p..administration, compounds were dissolved in 0.9% NaCl and for the i.v. administration, the compound was administered via the tail vein.
Percent tumor growth inhibition (% TGI) was calculated as
% TGI=(Cday a−Tday a)/(Cday a−Cday 1)×100
Where C is the median tumor volume of the control group, T is the median tumor volume of the treatment group, and day a is the day of assessment.

Method for HCT 116 (colon): The TGI assessment, the treatment-induced decreases in tumor volume on day 21 of various treatment groups were compared to controls. Percent tumor growth inhibition (% TGI) was calculated as

On to `O=c1[nH]cc(F)c(=O)[nH]1` [Compound 5FU, Fluorouracil], for which the “% TGI at Day 15” value in the experiment with HCT 116 (colon) worked out at 34%.

Take `CCCCc1nc2cc(/C=C/C(=O)NO)ccc2n1CCN(CC)CC` [Compound A8, 3-[2-Butyl-1-(2-diethylamino-ethyl)-1H-benzimidazol-5-yl]-N-hydroxy-acrylamide]: the “% TGI at Day 15” value in the experiment with H460 (lung) (A8 50 mg/kg po qd × 14 d) is reported as 33%; with H460 (lung) (A8 75 mg/kg po D1-3, D8-10), 14%.

As for `N.N.O=C([O-])C1(C(=O)[O-])CCC1.[Pt+2]` [carboplatin, Carboplatin], in the experiment on H460 (lung) (carboplatin 30 mg/kg ip D1, 8), the “% TGI at Day 15” value worked out at 29%.

Take `Nc1ccn([C@@H]2O[C@H](CO)[C@@H](O)C2(F)F)c(=O)n1` [gemcitabine, Gemcitabine]: in the experiment on H460 (lung) (gemcitabine 80 mg/kg ip D1, 5, 9, 13 + vehicle po qd × 14 d), the “% TGI at Day 15” value stood at 36%.
